Measured values taken from ChEMBL document CHEMBL3603767, “Discovery of new acetylcholinesterase inhibitors with small core structures through shape-based virtual screening” (Bioorg Med Chem Lett, 2015).
Activity calls are given as the source filed them. The calls are words filed in the database; no cut-off is given here.

Tests used:
Acetylcholinesterase = Acetylcholinesterase (Electrophorus electricus, UniProt O42275)
Description: Inhibition of Electrophorus electricus AChE pre-incubated for 5 mins before acetylthiocholine iodide substrate addition by Ellman's method

[1] = target: Acetylcholinesterase (Electrophorus electricus) (UniProt O42275); experiment: Inhibition of Electrophorus electricus AChE at 10 uM pre-incubated for 5 mins before acetylthiocholine iodide substrate addition by Ellman's method
Cholinesterase = Cholinesterase (Equus caballus, UniProt P81908)
Description: Inhibition of equine serum BChE pre-incubated for 5 mins before butyrylthiocholineiodide substrate addition by Ellman's method

[2] = target: Cholinesterase (Equus caballus) (UniProt P81908); experiment: Inhibition of equine serum BChE at 10 uM pre-incubated for 5 mins before butyrylthiocholineiodide substrate addition by Ellman's method
[3] = target: Acetylcholinesterase (Electrophorus electricus) (UniProt O42275); experiment: Mixed type inhibition of Electrophorus electricus AChE assessed as increase in enzyme Km at 5 to 80 nM pre-incubated for 5 mins before acetylthiocholine iodide substrate addition by Lineweaver-Burk plot
[4] = target: Acetylcholinesterase (Electrophorus electricus) (UniProt O42275); experiment: Mixed type inhibition of Electrophorus electricus AChE assessed as reduction in enzyme Vmax at 5 to 80 nM pre-incubated for 5 mins before acetylthiocholine iodide substrate addition by Lineweaver-Burk plot

Chain of Cholinesterase (Equus caballus) (P81908 whole entry): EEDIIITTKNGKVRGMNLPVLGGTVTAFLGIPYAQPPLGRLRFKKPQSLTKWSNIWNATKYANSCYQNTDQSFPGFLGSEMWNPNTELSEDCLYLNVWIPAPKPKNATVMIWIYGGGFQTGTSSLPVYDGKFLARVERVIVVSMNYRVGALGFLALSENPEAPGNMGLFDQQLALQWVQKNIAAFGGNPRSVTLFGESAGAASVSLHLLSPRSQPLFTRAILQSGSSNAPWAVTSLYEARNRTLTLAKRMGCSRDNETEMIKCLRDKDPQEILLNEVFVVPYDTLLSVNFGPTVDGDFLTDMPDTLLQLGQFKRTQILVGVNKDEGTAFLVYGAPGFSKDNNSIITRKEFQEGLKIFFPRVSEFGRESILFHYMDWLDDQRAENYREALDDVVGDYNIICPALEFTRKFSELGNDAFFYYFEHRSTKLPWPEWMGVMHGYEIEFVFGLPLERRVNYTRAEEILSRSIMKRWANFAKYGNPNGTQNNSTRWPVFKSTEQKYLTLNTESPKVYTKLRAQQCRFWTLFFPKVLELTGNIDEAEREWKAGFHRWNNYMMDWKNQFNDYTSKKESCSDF
Chain of Cholinesterase (P81908 whole entry): as above
Chain of Acetylcholinesterase (O42275 whole entry): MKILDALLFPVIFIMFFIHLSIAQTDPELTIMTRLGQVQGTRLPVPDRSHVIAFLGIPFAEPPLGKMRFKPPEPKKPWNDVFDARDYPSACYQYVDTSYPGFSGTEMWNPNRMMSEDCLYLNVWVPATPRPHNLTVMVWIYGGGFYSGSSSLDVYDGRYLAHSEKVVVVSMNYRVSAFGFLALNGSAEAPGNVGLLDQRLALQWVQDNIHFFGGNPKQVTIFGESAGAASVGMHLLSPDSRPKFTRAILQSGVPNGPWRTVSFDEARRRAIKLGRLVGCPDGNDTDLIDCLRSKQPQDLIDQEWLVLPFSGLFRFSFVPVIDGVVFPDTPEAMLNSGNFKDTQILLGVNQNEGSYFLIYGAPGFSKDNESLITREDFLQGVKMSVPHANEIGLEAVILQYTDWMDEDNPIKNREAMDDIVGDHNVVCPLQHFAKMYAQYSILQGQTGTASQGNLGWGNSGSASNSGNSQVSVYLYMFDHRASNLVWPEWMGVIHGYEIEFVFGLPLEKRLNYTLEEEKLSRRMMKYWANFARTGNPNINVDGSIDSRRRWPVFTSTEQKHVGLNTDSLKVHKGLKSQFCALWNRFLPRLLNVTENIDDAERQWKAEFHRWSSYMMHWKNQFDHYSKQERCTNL
Chain of Acetylcholinesterase (Electrophorus electricus) (O42275 24-633 limits assumed): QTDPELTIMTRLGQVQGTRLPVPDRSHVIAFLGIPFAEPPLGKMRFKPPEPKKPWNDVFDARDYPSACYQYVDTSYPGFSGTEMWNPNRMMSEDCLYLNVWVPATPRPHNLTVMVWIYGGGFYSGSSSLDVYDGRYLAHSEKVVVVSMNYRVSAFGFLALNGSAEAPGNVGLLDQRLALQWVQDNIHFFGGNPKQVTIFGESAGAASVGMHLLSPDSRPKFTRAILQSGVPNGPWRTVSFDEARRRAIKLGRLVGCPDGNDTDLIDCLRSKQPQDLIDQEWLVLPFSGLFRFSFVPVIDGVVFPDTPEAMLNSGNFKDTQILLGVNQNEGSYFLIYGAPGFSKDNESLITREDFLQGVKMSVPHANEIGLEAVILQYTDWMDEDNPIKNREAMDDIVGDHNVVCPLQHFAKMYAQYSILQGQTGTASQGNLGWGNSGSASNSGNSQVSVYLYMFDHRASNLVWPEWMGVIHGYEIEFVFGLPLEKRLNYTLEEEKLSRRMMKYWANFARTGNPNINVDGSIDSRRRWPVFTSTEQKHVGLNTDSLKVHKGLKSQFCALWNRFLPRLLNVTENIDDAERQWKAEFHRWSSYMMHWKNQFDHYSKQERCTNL

| Compound | IC50 (Acetylcholinesterase) [nM] | inhibition [1] [%] | IC50 (Cholinesterase) [nM] | inhibition [2] [%] | inhibition [3] | inhibition [4] |
| --- | --- | --- | --- | --- | --- | --- |
| Cc1cccc2c(N)c3c(nc12)N(C)CC3 | 1150 | 89.7 | 15900 | 90.8 | – | – |
| Nc1c(N)c2ccccc2oc1=O | – | 8.33 | – | 27.9 | – | – |
| CN1CCNc2nc3ccccc3nc21 | – | 26.1 | – | 42.1 | – | – |
| CC(=O)c1oc2ccccc2c1N | – | 13.3 | – | 49.2 | – | – |
| O=c1c(Br)c[nH]c2cccnc12 | – | 28.3 | – | 24.2 | – | – |
| Nc1ccc2nc3n(c(=O)c2c1)CCC3 | – | 59.2 | – | 31.7 | – | – |
| N#CCSc1nc(N)c2c3c(sc2n1)CCCC3 | – | 34.2 | – | 65.4 | – | – |
| CC1(C)CC(=O)c2c(nc3ccccc3c2N)C1 | 7190 | 92.8 | 36200 | 85 | – | – |
| Nc1c2c(nc3sccc13)CCCC2 | 260 | 99.8 | 110 | 98.2 | – | – |
| O=C1c2ccccc2NC2=NCCCN12 | – | 26.7 | – | 42.5 | – | – |
| Nc1c2c(nc3c1CCC3)CCCC2 [IPIDACRINE] | 170 | 98.7 | 70 | 99 | – | – |
| COc1ccc2nc(C(F)(F)F)c(C#N)c(N)c2c1 | 690 | 85 | 30700 | 35.4 | – | – |
| Oc1nc(S)nc2c1CCCN2 | – | 68.3 | – | 30.4 | – | – |
| Nc1nc(O)c2c(n1)CCC2 | – | 45.6 | – | 45.8 | – | – |
| Nc1nc(N)c2c(Br)cccc2n1 | – | 76.9 | – | 82.5 | – | – |
| O=c1c2ccccc2nc2n1CCCS2 | – | 59.2 | – | 45 | – | – |
| Oc1ccnc2ccccc12 | – | 32.5 | – | 28.8 | – | – |
| Nc1c2c(nc3c1C1CCCCC1S3)CCCC2 (stereo not given) | 30 | 95.6 | 330 | 98.8 | Active | Active |
| Nc1c2c(nc3c4c(nn13)CCC4)CCC2 | 7410 | 76.7 | 60900 | 59.2 | – | – |
| Nc1nc(N)c2c(n1)CCC2 | – | 50.8 | – | 46.7 | – | – |
| CCCCN1CCc2c1nc1ccc(Br)cc1c2N | 300 | 90.6 | 8920 | 92.5 | – | – |
| Nc1c2c(nc3ccccc13)N(Cc1ccccc1)CC2 | 740 | 96.4 | 2250 | 99.8 | – | – |
| CC(=O)c1c(C)nc2ccccc2c1N | 320 | 96.9 | 460 | 99.7 | Active | Active |
